# Patent publication US20190070124A1, “COMPOSITIONS OF CB2 RECEPTOR SELECTIVE AGONISTS FOR TREATMENT OF MENTAL DISORDERS” (priority 2016, published 2019)
# Entries after “also recorded” stand apart in the source; their conditions may differ.
# What was measured:
# [1] = system: DOI-induced psychotic-like behaviour; type: in vivo, mice
# cannabinoid receptor CB2 = cannabinoid receptor CB2 (Homo sapiens, UniProt P34972); conditions: cited from earlier work
# [2] = system: murine model of schizophrenia; assay: Open-field test (ambulation, rearing, grooming) in the PCP mouse model
# Description: Mice were assessed for hyperactivity behavior on postnatal day 16 (FIG. 2). Mice were placed in the center of a transparent glass cube cage 30×40 X31 cm divided into squares of 7.5×7.5 cm. The number of squares and rearing activity were counted for 8 min.
# Mice were assessed for hyperactivity behavior on postnatal day 64-66. Mice were placed in the center of a transparent glass cube cage 30×40 X31 cm divided into squares of 7.5×7.5 cm. The number of squares and rearing activity were counted for 8 min.
# CB2 receptor = CB2 receptor (Homo sapiens, UniProt P34972); conditions: Chicca A. et al 2014; cited from earlier work
# Chain of CB2 receptor (P34972 whole entry): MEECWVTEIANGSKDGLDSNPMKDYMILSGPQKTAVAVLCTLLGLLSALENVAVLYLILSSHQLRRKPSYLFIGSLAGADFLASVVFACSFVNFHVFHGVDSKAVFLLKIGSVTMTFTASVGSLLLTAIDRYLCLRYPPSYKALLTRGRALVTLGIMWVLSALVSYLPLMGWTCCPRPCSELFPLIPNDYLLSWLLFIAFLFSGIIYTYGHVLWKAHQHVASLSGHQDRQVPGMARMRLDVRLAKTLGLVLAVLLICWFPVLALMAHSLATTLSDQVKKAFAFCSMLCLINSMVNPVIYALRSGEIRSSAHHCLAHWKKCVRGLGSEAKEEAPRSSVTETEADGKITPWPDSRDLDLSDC
# [3] = Skold et al. 2006; cited from earlier work
# [4] = system: murine model of schizophrenia; assay: Prepulse inhibition (PPI) of the startle reflex in the PCP mouse model; type: in vivo, mice; conditions: age 7-8 weeks
# Description: In this experimental model, a weak stimulus (74-90 dB tone) inhibited the subsequent response to a strong stimulus (120 dB tone). Reduced prepulse inhibition of the startle reflex (PPI) was taken as an index of the positive symptoms of schizophrenia (Josselyn and Vaccarino, 1998).
# PPI was assessed similarly to the method described by Varty et al. In the employed model, mice were placed in a startle chamber and allowed to acclimate for 5 min. A loudspeaker produced a 65 dB background white noise or the various acoustic pre-pulse stimuli (dB): 74, 78, 82, 86, and 90 (20 ms). A 120 dB (40 ms) stimulus was given first to induce a response to startle. The response of the mouse was transduced and stored by a computer. Each test session lasted for 11 min and consisted of 5 presentations of each of the trial types presented in random order and separated by 15 second intervals. The amount of prepulse inhibition was calculated as % PPI=[1−(startle response for prepulse+pulse)/(startle response for pulse alone)]×100.
# The % PPI indicates of level of disruption of the sensorimotor gating system in schizophrenia but also serves as an indicator of memory function. The % PPI after administration of PCP and treatment of BCP in the PPI test also serve as an index of memory function, further supporting the function of the sensorimotor system.
# [5] = Hanus et al 1999, cited from earlier work
# [6] = system: murine model of schizophrenia; assay: Elevated Plus Maze test in the PCP mouse model; type: in vivo, mice; conditions: age 13 weeks; PCP 5 mg/kg injected postnatally
# Description: Anxiety as measured by the paucity of time spent on the two, anxiety-provoking, open arms (as opposed to the two enclosed arms) of an “Elevated Plus Maze” was used as a parameter of negative symptoms of schizophrenia (Josselyn and Vaccarino, 1998). The plus maze was elevated 50 cm above the table top. Behavior of each mouse was recorded for 5 min by a video camera and scored using the “EthoVision” software (Noldus Information Technology, Wageningen, The Netherlands), measuring the number of entries as well as the amount of time spent in each arm, open or closed. Increased time spent in the closed arms indicated increased anxiety. Increased time spent in the opened arms indicated anxiolytic behavior (reduced stress).
# [7] = system: murine model of schizophrenia; assay: PhenoTyper cage behaviour in the PCP mouse model; type: in vivo, mice; conditions: PCP 5 mg/kg injected postnatally
# [8] = Body weight in the neonatal PCP mouse model of schizophrenia; conditions: PCP 5 mg/kg injected postnatally
# CYP2D6 = CYP2D6 (Homo sapiens, UniProt P10635); assay: CYP450 enzymatic metabolism in human liver microsomes; conditions: human liver microsomes 0.1 mg/mL, 20 min, 37 C
# Chain of CYP2D6 (P10635 whole entry): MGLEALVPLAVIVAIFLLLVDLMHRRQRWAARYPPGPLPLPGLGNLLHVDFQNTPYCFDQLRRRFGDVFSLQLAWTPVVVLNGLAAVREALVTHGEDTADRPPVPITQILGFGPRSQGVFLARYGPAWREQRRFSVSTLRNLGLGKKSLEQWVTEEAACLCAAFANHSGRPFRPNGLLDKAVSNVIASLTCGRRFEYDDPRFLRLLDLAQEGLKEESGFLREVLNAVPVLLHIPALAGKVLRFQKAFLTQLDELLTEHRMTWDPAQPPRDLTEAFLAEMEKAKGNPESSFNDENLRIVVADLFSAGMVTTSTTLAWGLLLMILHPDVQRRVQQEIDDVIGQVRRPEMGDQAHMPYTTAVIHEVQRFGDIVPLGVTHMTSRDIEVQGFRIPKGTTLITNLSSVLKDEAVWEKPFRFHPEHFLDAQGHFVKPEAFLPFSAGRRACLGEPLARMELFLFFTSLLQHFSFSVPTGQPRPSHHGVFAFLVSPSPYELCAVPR
# Description: CYP450 dependent activities were determined using a known substrate. […] A known inhibitor, such as quinidine, tested at a single concentration 3.00 μM was included as positive control. Incubation mixture containing human liver microsomes (0.1 mg/mL), substrate (5 μM) and standard inhibitor or test compound were warmed at 37 C for 10 minutes. Reactions were initiated by addition of the NADPH (1 mM) and the mixture was incubated for 20 minutes at 37° C. water bath. The organic solvent in the reaction mixture was DMSO. After incubation, ice cold acetonitrile was added to terminate the reaction. Generation of metabolite from the substrate reactions was determined by LC-MS/MS and assessed based on peak area ratios of analyte/IS. Mean was used to calculate the extent of inhibition (expressed as % of control activity).
# Chain of cannabinoid receptor CB2 (P34972 whole entry): as the sequence (P34972 whole entry) above
smiles,measurement,setting,value
"COc1cc(CC(C)N)c(OC)cc1I.Cl (single isomer, unassigned; (-)) [DOI, (−)-1-(2,5-Dimethoxy-4-iodophenyl)-2-aminopropane hydrochloride, reference compound]","grooming response, DOI vs control","[1]; DOI injected intraperitoneally to mice, hydrochloride",significantly increased the grooming response
"COc1ccc(C(=O)c2c(C)n(CCN3CCOCC3)c3cc(I)ccc23)cc1 [AM630, 6-Iodopravadoline, reference compound]",Ki,cannabinoid receptor CB2,32.1 nM
same,"open-field ambulation and rearing, reversal of the BCP effect","[2]; PND 17, male mice, AM630 10 mg/kg co-injected with BCP 10 mg/kg 1 h after PCP",reversed the effects of BCP on ambulation and rearing behaviors; also recorded: not significantly different from these of PCP-treated mice; also recorded: reversed the effect of BCP on PCP-induced inhibition of ambulation and rearing
"C=C1CC[C@H]2O[C@]2(C)CC[C@@H]2[C@@H]1CC2(C)C [BCP oxide, Caryophyllene oxide]",CB2 receptor binding,CB2 receptor,inactivity
same,allergenicity,[3],found to be an allergen
"CCCCCCC(C)(C)c1cc(OC)c([C@@H]2C=C(CO)[C@@H]3C[C@H]2C3(C)C)c(OC)c1 [HU-308, [(1R,2R,5R)-2-[2,6-dimethoxy-4-(2-methyloctan-2-yl)phenyl]-7,7-dimethyl-4-bicyclo[3.1.1]hept-3-enyl]methanol]",% PPI,"[4]; HU-308 5 mg/kg injected 1 h after PCP postnatally (Cremophor EL:ethanol:saline), 5 mg/kg",reversed the effect of PCP on the % PPI; also recorded: reversed the effect of PCP in the PPI test
same,time to inhibition of DOI-induced psychotic-like behaviour,[1]; HU-308 i.p. before DOI,already after about one hour
same,DOI-induced grooming response,[1]; HU-308 injected intraperitoneally one to two hours before DOI,reverses the effects of the psychedelic drug DOI on behavioral symptoms in a murine model; also recorded: significantly reversed the effect of DOI on grooming response
same,body weight of adult mice,[5],does not modulate body weight of adult mice
same,psychoactivity in vivo,[5],non-psychoactive agent in vivo
same,open field assay,[5]; similar age of mice (about PND 63),no effects of HU-308 in the open field assay
"c1ccc(C2(N3CCCCC3)CCCCC2)cc1 [PCP, Phencyclidine, reference compound]","% prepulse inhibition, PCP vs vehicle",[4]; PCP 5 mg/kg injected postnatally,reduced the percent inhibition; also recorded: significant reduction in their ability to adjust to sound stimulus as compared to vehicle treated mice
same,"time spent in distal end of the opened arm, females, PCP vs vehicle",[6],reduced the time spent in the distal end of the opened arm
same,"time spent in distal end of the opened arm, males, PCP vs vehicle",[6],increased the time spent in the distal end of the opened arm
same,"frequency of entries to the Hidden Zone, males, PCP vs vehicle",[7]; PND 91,appeared to reduce the frequency of entries to the Hidden Zone in males
same,"frequency of entries to the wheel, PCP vs vehicle",[7]; PND 91,reduced the frequency of entries to the wheel
same,"time spent at the Hidden Zone, PCP vs vehicle",[7]; PND 91,increased the time spend at the Hidden Zone
same,"frequency of entries to the Hidden Zone, PCP vs vehicle",[7]; PND 105,increased the frequency of entries to the Hidden Zone
same,"body weight, PCP vs vehicle",[8]; weight PND 3-17,significantly reduce the body weight; also recorded: induced a significant reduction in body weight; also recorded: difference between vehicle- and PCP-treated groups in body weight was still significant; also recorded: significantly reduced body weight in male and female mice
same,"body weight, PCP vs vehicle",[8]; PND 63,no significant difference in the body weight between vehicle-treated mice and PCP-treated mice
same,"open-field ambulation and rearing, PCP vs vehicle","[2]; PND 16-17, PCP 5 mg/kg injected postnatally",significantly inhibited both ambulation and rearing behaviors
same,"open-field locomotor activity, males, PCP vs vehicle","[2]; PND 35-37, PCP 5 mg/kg injected postnatally",significantly increased the locomotor activity compared with vehicle treatment
C/C1=C\CC/C(C)=C/CC(C)(C)/C=C/C1 [alpha-humulene],CB2 receptor binding,CB2 receptor,inactivity
"Cc1nc2n(c(=O)c1CCN1CCC(c3noc4cc(F)ccc34)CC1)CCCC2 [risperidone, Risperidone, reference compound]",inhibition of CYP2D6 enzymatic activity,CYP2D6,inhibited the activity of CYP2D6 enzyme
same,inhibition of CYP2D6 enzymatic activity,CYP2D6; listed as Risperidone,inhibited CYP2D6 enzymatic activity
same,"activity in the open field test, male mice","[2]; postnatal day 64, postnatal PCP 5 mg/kg, oral risperidone 0.5 mg/kg twice a week, PND 43-62",reversed the effect of 5 mg/kg PCP on activity in the open field test of male mice at postnatal day 64
